Reference: ChEMBL document CHEMBL4011641, “Prodrugs of Pyrazolo[3,4-d]pyrimidines: From Library Synthesis to Evaluation as Potential Anticancer Agents in an Orthotopic Glioblastoma Model” (J Med Chem, 2017)
In brackets after ≈: the same amount, converted by molar mass.

Experiments:
[1] = tested on: Mus musculus; assay: AUC (0 to infinity) in BALB/C mouse assessed as N-(3-bromophenyl)-1-(2-chloro-2-phenylethyl)-6-(2-morpholinoethylthio)-1H-pyrazolo[3,4-d]pyrimidin-4-amine level at 50 mg/kg administered through oral gavage as methylcellulose formulation measured at 1 to 24 hrs post dose by UV/LC-MS analysis; type: ADME, organism-based; set-up: dose 50 mg/kg, route oral, time infinity; details: in vivo
[2] = tested on: Mus musculus; assay: Tmax in BALB/C mouse assessed as N-(3-bromophenyl)-1-(2-chloro-2-phenylethyl)-6-(2-morpholinoethylthio)-1H-pyrazolo[3,4-d]pyrimidin-4-amine level at 50 mg/kg, ip administered via bolus dose using DMSO formulation measured at 1 to 24 hrs post dose by UV/LC-MS analysis; type: ADME, organism-based; details: in vivo
[3] = Drug uptake in BALB/C mouse adipose tissue at 50 mg/kg, ip via bolus administration measured at 24 hrs post dose by UV/LC-MS; type: ADME, organism-based; details: in vivo
[4] = tested on: Mus musculus; assay: Half life in BALB/C mouse assessed as N-(3-bromophenyl)-1-(2-chloro-2-phenylethyl)-6-(2-morpholinoethylthio)-1H-pyrazolo[3,4-d]pyrimidin-4-amine level at 50 mg/kg, ip administered via bolus dose using DMSO formulation measured at 1 to 24 hrs post dose by UV/LC-MS analysis; type: ADME, organism-based; details: in vivo
[5] = tested on: Kidney; assay: Drug uptake in BALB/C mouse kidney at 50 mg/kg, ip via bolus administration measured at 24 hrs post dose by UV/LC-MS; type: ADME, organism-based; details: in vivo
[6] = Half life in BALB/C mouse at 50 mg/kg, ip administered via bolus dose using DMSO formulation measured at 1 to 24 hrs post dose by UV/LC-MS analysis; type: ADME, organism-based; details: in vivo
[7] = Antitumor activity against human U87 cells xenografted in nude immunodeficient CD1 mouse assessed as mean survival time at 50 mg/kg, po administered every other day (reference value: 30 day); type: functional, U-87MG ATCC
[8] = tested on: Mus musculus; assay: AUC (0 to 24 hrs) in BALB/C mouse assessed as N-(3-bromophenyl)-1-(2-chloro-2-phenylethyl)-6-(2-morpholinoethylthio)-1H-pyrazolo[3,4-d]pyrimidin-4-amine level at 50 mg/kg, ip administered via bolus dose using DMSO formulation measured at 1 to 24 hrs post dose by UV/LC-MS analysis; type: ADME, organism-based; set-up: dose 50 mg/kg, time < 24 hr, route intraperitoneal; details: in vivo
[9] = Tmax in BALB/C mouse at 50 mg/kg, ip administered via bolus dose using DMSO formulation measured at 1 to 24 hrs post dose by UV/LC-MS analysis; type: ADME, organism-based; details: in vivo
[10] = Plasma concentration in BALB/C mouse at 50 mg/kg, ip via bolus administration measured at 24 hrs post dose by UV/LC-MS; type: ADME, organism-based
[11] = tested on: Mus musculus; assay: AUC (0 to infinity) in BALB/C mouse assessed as N-(3-bromophenyl)-1-(2-chloro-2-phenylethyl)-6-(2-morpholinoethylthio)-1H-pyrazolo[3,4-d]pyrimidin-4-amine level at 50 mg/kg, ip administered via bolus dose using DMSO formulation measured at 1 to 24 hrs post dose by UV/LC-MS analysis; type: ADME, organism-based; set-up: dose 50 mg/kg, time infinity, route intraperitoneal; details: in vivo
[12] = cells; details: Homo sapiens, U-87 MG, 48 h
Description: Cytotoxicity against human U87 cells assessed as reduction in cell viability after 48 hrs by trypan blue assay

[13] = Cmax in BALB/C mouse at 50 mg/kg, ip administered via bolus dose using DMSO formulation measured at 1 to 24 hrs post dose by UV/LC-MS analysis; type: ADME, organism-based; set-up: dose 50 mg/kg, route intraperitoneal; details: in vivo
[14] = tested on: Mus musculus; assay: Cmax in BALB/C mouse assessed as N-(3-bromophenyl)-1-(2-chloro-2-phenylethyl)-6-(2-morpholinoethylthio)-1H-pyrazolo[3,4-d]pyrimidin-4-amine level at 50 mg/kg administered through oral gavage as methylcellulose formulation measured at 1 to 24 hrs post dose by UV/LC-MS analysis; type: ADME, organism-based; set-up: dose 50 mg/kg, route oral; details: in vivo
[15] = cells; details: Homo sapiens, U-87 MG, 24 h
Description: Cytotoxicity against human U87 cells assessed as reduction in cell viability after 24 hrs by trypan blue assay

[16] = AUC (0 to 24 hrs) in BALB/C mouse at 50 mg/kg, ip administered via bolus dose using DMSO formulation measured at 1 to 24 hrs post dose by UV/LC-MS analysis; type: ADME, organism-based; set-up: dose 50 mg/kg, time < 24 hr, route intraperitoneal; details: in vivo
[17] = tested on: Mus musculus; assay: Half life in BALB/C mouse assessed as N-(3-bromophenyl)-1-(2-chloro-2-phenylethyl)-6-(2-morpholinoethylthio)-1H-pyrazolo[3,4-d]pyrimidin-4-amine level at 50 mg/kg administered through oral gavage as methylcellulose formulation measured at 1 to 24 hrs post dose by UV/LC-MS analysis; type: ADME, organism-based; details: in vivo
[18] = tested on: Mus musculus; assay: AUC (0 to 24 hrs) in BALB/C mouse assessed as N-(3-bromophenyl)-1-(2-chloro-2-phenylethyl)-6-(2-morpholinoethylthio)-1H-pyrazolo[3,4-d]pyrimidin-4-amine level at 50 mg/kg administered through oral gavage as methylcellulose formulation measured at 1 to 24 hrs post dose by UV/LC-MS analysis; type: ADME, organism-based; set-up: dose 50 mg/kg, time < 24 hr, route oral; details: in vivo
[19] = tested on: Mus musculus; assay: MRT in BALB/C mouse assessed as N-(3-bromophenyl)-1-(2-chloro-2-phenylethyl)-6-(2-morpholinoethylthio)-1H-pyrazolo[3,4-d]pyrimidin-4-amine level at 50 mg/kg, ip administered via bolus dose using DMSO formulation measured at 1 to 24 hrs post dose by UV/LC-MS analysis; type: ADME, organism-based; details: in vivo
[20] = Metabolic stability in human liver microsomes assessed as parent compound remaining at 50 uM after 1 hr in presence of NADPH regenerating system by UV/LC-MS analysis; type: ADME, microsome; details: read-out: Stability
[21] = tested on: Mus musculus; assay: MRT in BALB/C mouse assessed as N-(3-bromophenyl)-1-(2-chloro-2-phenylethyl)-6-(2-morpholinoethylthio)-1H-pyrazolo[3,4-d]pyrimidin-4-amine level at 50 mg/kg administered through oral gavage as methylcellulose formulation measured at 1 to 24 hrs post dose by UV/LC-MS analysis; type: ADME, organism-based; details: in vivo
[22] = AUC (0 to infinity) in BALB/C mouse at 50 mg/kg, ip administered via bolus dose using DMSO formulation measured at 1 to 24 hrs post dose by UV/LC-MS analysis; type: ADME, organism-based; set-up: dose 50 mg/kg, time infinity, route intraperitoneal; details: in vivo
[23] = tested on: Liver; assay: Drug uptake in BALB/C mouse liver at 50 mg/kg, ip via bolus administration measured at 24 hrs post dose by UV/LC-MS; type: ADME, organism-based; details: in vivo
[24] = cells; details: Homo sapiens, U-87 MG, 72 h
Description: Cytotoxicity against human U87 cells assessed as reduction in cell viability after 72 hrs by trypan blue assay

[25] = tested on: Mus musculus; assay: Plasma clearance in BALB/C mouse assessed as N-(3-bromophenyl)-1-(2-chloro-2-phenylethyl)-6-(2-morpholinoethylthio)-1H-pyrazolo[3,4-d]pyrimidin-4-amine level at 50 mg/kg administered through oral gavage as methylcellulose formulation measured at 1 to 24 hrs post dose by UV/LC-MS analysis; type: ADME, organism-based; details: in vivo
[26] = tested on: Mus musculus; assay: Cmax in BALB/C mouse assessed as N-(3-bromophenyl)-1-(2-chloro-2-phenylethyl)-6-(2-morpholinoethylthio)-1H-pyrazolo[3,4-d]pyrimidin-4-amine level at 50 mg/kg, ip administered via bolus dose using DMSO formulation measured at 1 to 24 hrs post dose by UV/LC-MS analysis; type: ADME, organism-based; set-up: dose 50 mg/kg, route intraperitoneal; details: in vivo
[27] = Metabolic stability in mouse liver microsomes assessed as unmetabolized compound remaining at 50 uM after 1 hr in presence of NADPH regenerating system by UV/LC-MS analysis; type: ADME, microsome; details: read-out: Stability
[28] = Plasma clearance in BALB/C mouse at 50 mg/kg, ip administered via bolus dose using DMSO formulation measured at 1 to 24 hrs post dose by UV/LC-MS analysis; type: ADME, organism-based
[29] = physchem; details: aqueous
Description: Aqueous solubility of compound at 1 mg after 24 hrs by UV/LC-MS analysis

[30] = physchem; details: PAMPA
Description: Apparent permeability at 500 uM after 5 hrs by Blood-Brain Barrier-based PAMPA

[31] = MRT in BALB/C mouse at 50 mg/kg, ip administered via bolus dose using DMSO formulation measured at 1 to 24 hrs post dose by UV/LC-MS analysis; type: ADME, organism-based; details: in vivo
[32] = tested on: Brain; assay: Drug uptake in BALB/C mouse brain at 50 mg/kg, ip via bolus administration measured at 24 hrs post dose by UV/LC-MS analysis; type: ADME, organism-based; details: in vivo
[33] = tested on: Mus musculus; assay: Plasma clearance in BALB/C mouse assessed as N-(3-bromophenyl)-1-(2-chloro-2-phenylethyl)-6-(2-morpholinoethylthio)-1H-pyrazolo[3,4-d]pyrimidin-4-amine level at 50 mg/kg, ip administered via bolus dose using DMSO formulation measured at 1 to 24 hrs post dose by UV/LC-MS analysis; type: ADME, organism-based; details: in vivo
[34] = tested on: Mus musculus; assay: Tmax in BALB/C mouse assessed as N-(3-bromophenyl)-1-(2-chloro-2-phenylethyl)-6-(2-morpholinoethylthio)-1H-pyrazolo[3,4-d]pyrimidin-4-amine level at 50 mg/kg administered through oral gavage as methylcellulose formulation measured at 1 to 24 hrs post dose by UV/LC-MS analysis; type: ADME, organism-based; details: in vivo

SMILES: ClC(Cn1ncc2c(Nc3cccc(Br)c3)nc(SCCN3CCOCC3)nc21)c1ccccc1 (centres undefined)
- AUC [1]: 43.53 µM·h
- Tmax [2]: 1.5 h
- Drug uptake [3]: 51.2 nmol/g
- t1/2 [4]: 33.3 h
- Drug uptake [5]: 3.6 nmol/g
- half-life [6]: 14.8 h
- MST [7]: 44 days
- AUC [8]: 55.14 µM·h
- Tmax [9]: 0.5 h
- concentration at 24 h [10]: 2.6 µM
- AUC [11]: 135.11 µM·h
- IC50 [12]: 6.8 µM
- Cmax [13]: 6.83 µM
- Cmax [14]: 5.35 µM
- IC50 [15]: 17.3 µM
- AUC(0-t) at 24 h [16]: 56.1 µM·h
- t1/2 [17]: 9.06 h
- AUC [18]: 36.69 µM·h
- MRT [19]: 46.62 h
- remaining at 1 h, 50 µM [20]: 97.2%
- MRT [21]: 11.97 h
- AUC(0-inf) [22]: 79.7 µM·h
- Drug uptake [23]: 1.7 nmol/g
- IC50 [24]: 1.9 µM
- CL [25]: 1.14 mL/min
- Cmax [26]: 6.07 µM
- remaining at 1 h, 50 µM [27]: 89.2%
- CL/F [28]: 0.46 mL/min
- solubility at 24 h [29]: 3.7 µg/mL (≈ 6.45 µM)
- Papp at 5 h, 500 µM [30]: 7.1 ×10⁻⁶ cm/s
- MRT [31]: 19.1 h
- Drug uptake [32]: 2.7 nmol/g
- CL [33]: 0.27 mL/min
- Tmax [34]: 2 h
